The values that follow come from patent US20060194947A1, “Peptide gap junction modulators” (priority 2002, published 2006).

Series [1] can be described thus: Oral bioavailability, pharmacokinetic screening (i.v./p.o. cross-over, LC/MS/MS). Format: in vivo. To be noted: male, rat, plasma, Sprague-Dawley rats. The text has this:
The water used for these experiments was of highest quality obtained from a reversed osmosis primary system in combination with a Milli-Q water secondary treatment system (Millipore, Bedford, Mass., USA). Methanol was super gradient quality obtained from Labscan Ltd. (Dublin, Ireland). Formic acid p.a. (98-100%) was obtained from Merck (Darmstadt, Germany). Heptafluorobuturicacid, HPLC grade wAs obtained from Pierce (Rockford, Ill., USA). EDTA stabilised plasma from rat (Sprague-Dawley) was obtained from Harlan Sera Lab Ltd. (Loughborough, UK). Blood samples were collected in potassium EDTA coated microtainers from BD Vacutainer Systems (Plymouth, UK). Sample preparation by ultra filtration was performed using Microcon centrifugal filter devices with a molecular weight cut off of 3000 obtained from Millipore (Bedford, Mass., USA).
The LC/MS/MS analysis was performed on a Waters Alliance 2790 HPLC instrument in combination with a Quattro Ultima mass spectrometer from Micromass (Manchester, UK). Both the LC and MS were controlled by MassLynx 3.5 software. The LC separations prior to MS/MS detection were performed on an XTerra MS C18 (2.0×50 mm), 3.5 μm particles, (Waters, Milford, Mass., USA).
Twelve male Sprague-Dawley rats (approx 350 g) were obtained from M&B (Denmark) and catheters were inserted into the femoral vein and artery during Hypnorm®-Dormicum® anaesthesia. After surgery, the rats were allowed to recover for five days before drug administration was initiated.
The dipeptides (Compound 22, Compound 21, Compound 23, Compound 96, Compound 95 and Compound 54) were obtained as the TFA salts and dissolved in PBS (2.6 mM KCl, 137 mM NaCl, 1.5 mM KH2PO4 and 8.2 mM Na2HPO4 adjusted to pH=7.4) to give concentrations of 500 μM. The dosing volumes were 1 mL/kg corresponding to doses of 500 nmol/kg, respectively. After each experiment the dosing solutions were diluted in 0.5% formic acid in water and analysed by LC/MS/MS for their content of drug substance. The concentrations of drug substance in the dosing solutions were calculated from the responses of standards in the range from 1 to 1000 nM.
The drug substances were administered to two animals as i.v. and p.o. bolus in a cross-over study design. The p.o. dose was administered to rats fasted for a 17 hours period prior to drug administration. The animals were allowed to rest for 48 hours in between drug administrations. After the first experiment the rats received a blood transfusion with heparin treated blood.
Prior to drug administration (5 min) the rats received 500 IU heparin as an i.v. bolus and a control blood sample was collected. After drug administration blood samples of approx. 250 μL were collected from the femoral artery at the following time points; before dose (B.D.), 5, 15, 30, 60, 120, 180 and 240 min after i.v. administration and at B.D., 10, 30, 50, 80, 120, 180, 240, and 300 min after p.o. administration. The blood samples were stored on ice until centrifugation for 5 min at 10.000×g (4° C.) and the plasma (100 μL) were transferred to 1.5 mL polypropylene tubes and stored at −20° C. until sample preparation and LC/MS/MS analysis.
The plasma samples were thawed on ice, and 100 μL plasma was mixed with 100 μL 1% (v/v) formic acid and transferred to microcon YM-3 filter units. The samples were then centrifuged for 1 hr at 8.300×g at room temperature. The filtrates were collected in 300 μL autosampler vials and stored at 4° C. until injection (40 μL) onto the LC column. The chromatography was performed at 50° C. using a linear gradient from 100% buffer A (0.1% formic acid in water) to 100% buffer B (0.1% formic acid in acetonitrile) in 4 min, followed by 3 min wash using buffer B and finally a reequilibration period for 7 min using buffer A. The detection of the drug substances were performed by MS/MS using argon as collision gas (1.3×10^−3 mbar). […]

For series [2], the system named is calcium-induced arrhythmias (2nd degree AV block). In words: Standard calcium-induced arrhythmia assay. As to conditions: mice, i.v. 3 min before CaCl2 infusion; (tarr(testcompound)−tarr(vehicle))×100/tarr(vehicle). Format: in vivo, Male NMRI mice. How it is done: Peptides suitable for administration to cardiac cells can be identified in an in vivo model of calcium-induced arrhythmias according to the model of Lynch et al. (1981) J Cardiovasc. Pharmacol. 3: 49-60. Mice (25-30 g) are anaesthetized with a neurolept anaesthetic combination and an i.v. cannula is inserted into the tail vein. A lead II ECG signal is recorded continuously by positioning a stainless steel ECG electrodes on the right forelimb and on the left hind limb. The ground electrode is placed on the right hind limb. The signal is amplified (×5.000-10.000) and filtered (0.1-150 Hz) via a Hugo Sachs Electronic model 689 ECG module. The analog signal is digitized via a 12 bit data acquisition board (Data Translation model DT321) and sampled at 1000 Hz using the Notocord HEM 3.1 software for Windows NT. After a 10-minute equilibration period, the test sample of peptide is injected into the tail vein. Mice pre-treated with buffer are tested as a measure of the control level in untreated animals. The injection volume is 100 μl in all experiments.
Infusion of CaCl2 (30 mg/ml, 0.1 ml/min≈100 mg/kg/min (calcium chloride-2-hydrate, Riedel-de Haën, Germany)) is started 3 min after i.v. administration of drug or vehicle. The time lag to onset of 2nd degree AV-block is determined as the time from the start of CaCl2 infusion until the first arrhythmic event occurs. An event of 2nd degree AV-block is defined as intermittent failure of the AV conduction characterised by a P-wave without the concomitant QRS complex.
Responses are expressed relative to the time until 2nd degree AV-block occurred in vehicle treated mice. The maximal effect of compounds (e.g., peptides, AAP, AAP10 or controls) is determined. […] Preferably, […], the peptides provide at least about 40% of the activity of AAP, for example at least about 50% of the activity of AAP, such as about 60% of the activity of AAP, for example at least about 70% of the activity of AAP, such as at least about 80% of the activity of AAP, for example at least about 90% of the activity of AAP, for example at least about substantially the same activity of AAP, such as about 110% of the activity of AAP, for example at least about 120% of the activity of AAP, such as at least about 130% of the activity of AAP, for example at least about 140% of the activity of AAP, such as about 150% of the activity of AAP, for example at least about 160% of the activity of AAP, such as at least about 170% of the activity of AAP, for example at least about 180% of the activity of AAP, preferably at least about 190% of the activity of AAP, more preferably at least about 200 or greater % of the activity of AAP (i.e., the peptides show time lags of approximately the same duration as induced by AAP).
The anti-arrhythmic effect of the dipeptides was determined in a model of calcium-induced arrhythmias according to the model of Lynch et al.. Male NMRI mice (25-30 g; Bomholdtgaard, LI. Skendsved, Denmark) were anaesthetised with a neurolept anaesthetic combination (Hypnorm® (fentanyl citrate 0.315 mg/ml and fuanisone 10 mg/ml)+midazolam (5 mg/ml)). Commercial solutions of Hypnorm® and midazolam were diluted 1:1 in distilled water, and one part diluted Hypnorm® was mixed with one part diluted midazolam. Anaesthesia was induced by s.c. administration of this solution in a dose of 50-75 μl/10 gram mouse.
An i.v. cannula was inserted into the tail vein. The lead II ECG signal was recorded continuously by positioning of stainless steel ECG electrodes on the right forelimb and on the left hind limb. The ground electrode was placed on the right hind limb. The signal was amplified (×5.000-10.000) and filtered (0.1-150 Hz) via a Hugo Sachs Electronic model 689 ECG module. The analogue signal was digitised via a 12-bit data acquisition board (Data Translation model DT321) and sampled at 1000 Hz using the Notocord HEM 3.1 software for Windows NT. […]

Series [3] deals with Human primary osteoblasts. In words: Osteoblast activity (ALP assay). Format: cell-based. To be noted: cell lysate, stimulated 1×10^−13 to 1×10^−6 for the last 4 days, compared to vehicle treated control cultures. How it is done: Cells also can be measured for the presence of alkaline phosphatase activity to provide a general measure of osteoblast activity. In one aspect, cells are plated in 96-well plates at a concentration of 8000 cells/well (hOB) or 3000 cells/well (ROS) in 200 μl normal culture medium. On day 4 (or day 3 for ROS cells), cells are washed with 200 μl MEM, 0.1% BSA (Sigma, Cat.No. A-9418). Samples comprising a suitable medium (e.g., 200 μl MEM, 0.1% BSA) containing various concentrations of peptides, control, AAP or AAP10 are added to the cells, and culture is continued for about 4 days (2 days for ROS cells).
On about day 8 (preferably day 5 for ROS cells), cells are assayed for alkaline phosphatase using an Alkaline Phosphatase (ALP) assay such as is known in the art. ALP assays are generally colorimetric endpoint methods for measuring enzyme activity, and can be performed using an Alkaline Phosphatase Kit (Sigma, Cat.No. 104-LL). Preferably, cells are washed once with 200 μl PBS+Ca, Mg, 100 μl Alkaline Buffer Solution is added to each well and the cells are incubated at 37° C. for 10 minutes. 100 μl Substrate Solution is subsequently added to each well and the plate is incubated at 37° C. for 30 min. 100 μl 2.0 N NaOH is added to each well to stop the reaction. Absorbance is measured using a plate reader at 405 nm.
Human primary osteoblasts were obtained from bone marrow biopsies of the posterior iliac spine from voluntary donors. Cells were used at 6 weeks of culturing. Cells were cultured in 24-well plates in an 8 days process and stimulated with the test compounds in concentrations from 1×10^−13 to 1×10^−6 for the last 4 days of the experiment. Cell lysate was collected for determination of ALP activity. hOB cells from 10-15 donors were used for the experiments. For ALP measurements a commercially available kit (Alkaline Phosphatase Kit, Sigma-Aldrich Denmark A/S) was used. All determinations were performed according to the manufacturer's recommendations.
ALP was determined on cell lysate collected at termination of the experiment. Measurements were compared with and to vehicle treated control cultures.
Data are presented as means and standard deviations or medians and percentiles as appropriate. Two-way ANOVA is performed using Fisher's LSD test for post-hoc comparisons, using a 0.05 level of significance.

Setting [4] is: oral, TFA salts in PBS, 500 nmol/kg i.v. and p.o. bolus, p.o. fasted 17 hours, dose normalised AUCpo/AUCiv, read-out: F (%) Mean (mean bioavailability).
[5] abbreviates: oral administration 500 nmol/kg, read-out: bioavailability.

Read-outs that look alike come from different tables or passages of the source. Where a SMILES comes first, the peptide text is derived from it. [ ]: non-standard residue; d: D form. The star is where a group is joined. Bz = O=C(c1ccccc1)*

Consider `COc1ccc(C(=O)NCCCC[C@@H](N)C(=O)NCC(=O)O)cc1` [Compound 21, H-D-Lys(4-methoxybenzoyl)-Gly-OH], for which the bioavailability in series [1] (setting [4]) was 2.6%; in series [1] (setting [5]), 2 to 8%. In addition, the “% response (time lag to onset of 2nd degree AV block relative to vehicle)” value in series [2] was 55.0%.
With `N[C@H](CCCCNC(=O)c1ccc([N+](=O)[O-])cc1)C(=O)NCC(=O)O` [Compound 22, H-D-Lys(4-nitrobenzoyl)-Gly-OH], the bioavailability is 31% in series [1] (setting [4]) and 10 to 31% in series [1] (setting [5]). In series [3], the “ALP activity relative to vehicle control (ratio)” value was determined as 1.12. For the same compound, the “% response (time lag to onset of 2nd degree AV block relative to vehicle)” value in series [2] is reported as 52.0%.
For `N[C@H](CCCCNC(=O)c1ccccc1)C(=O)NCC(=O)O` [Compound 23, H-D-Lys(benzoyl)-Gly-OH] (H-[dK](Bz)-Gly-OH), in that order: 10%, 10 to 31%, 1.08 and −8.0%.
For the compound `CC(C)(C)c1ccc(C(=O)NCCCC[C@@H](N)C(=O)NCC(=O)O)cc1` [Compound 54, H-D-Lys(4-t-butylbenzoyl)-Gly-OH], the bioavailability in series [1] (setting [4]) was 7.2%; in series [1] (setting [5]) it was 2 to 8%. Also, the “% response (time lag to onset of 2nd degree AV block relative to vehicle)” value in series [2] is 61.3%.
Take `COc1ccc(CNC(=O)C[C@@H](N)C(=O)N[C@@H](C)C(=O)O)cc1` [Compound 95, H-D-Asn(NH(4-methoxybenzyl))-Ala-OH]: the bioavailability was 29% in series [1] (setting [4]) and 10 to 31% in series [1] (setting [5]). The “ALP activity relative to vehicle control (ratio)” value in series [3] is 1.14. Besides, the “% response (time lag to onset of 2nd degree AV block relative to vehicle)” value in series [2] was determined as 0.3%.
As for `C[C@H](NC(=O)[C@H](N)CC(=O)NCc1ccc([N+](=O)[O-])cc1)C(=O)O` [Compound 96, H-D-Asn(NH(4-nitrobenzyl))-Ala-OH], the results for the bioavailability in series [1] (setting [4]) and in series [1] (setting [5]) were 15% and 10 to 31%, respectively. For the same compound, the “% response (time lag to onset of 2nd degree AV block relative to vehicle)” value in series [2] turned out to be 54%.
“H-Asn(NH(4-methoxybenzyl))-D-Ala-OH [Compound 80]”: the “% response (time lag to onset of 2nd degree AV block relative to vehicle)” value in series [2] was 33%.
Regarding “H-Gly-Lys(4-cyanobenzoyl)-OH [Compound 3]”, in series [2], the “% response (time lag to onset of 2nd degree AV block relative to vehicle)” value is on record as 37.0%.
Turning to “H-Gly-Lys(4-methoxybenzoyl)-OH [Compound 4]”, the “% response (time lag to onset of 2nd degree AV block relative to vehicle)” value in series [2] came out at 69.0%.
Turning to “H-Gly-Lys(4-nitrobenzoyl)-OH [Compound 1]”, the “ALP activity relative to vehicle control (ratio)” value in series [3] is reported as 1.08. For the same compound, the “% response (time lag to onset of 2nd degree AV block relative to vehicle)” value in series [2] was determined as 52.0%.
In the case of “H-Lys(4-nitrobenzoyl)-Gly-OH [Compound 7]”, the “% response (time lag to onset of 2nd degree AV block relative to vehicle)” value in series [2] is 40%.

A word on the bioavailability: it is dose-corrected exposure relative to a reference, in per cent.
